Reference: patent US20040034019A1, “Piperazine and piperidine derivatives” (priority 2002, published 2004)

System: rat embryo ventral mesencephalic cells
Test: Neuroprotection assay (NMDA neuroexcitotoxic injury, high affinity 3H-dopamine uptake)
Assay type: cell-based, Sprague-Dawley rat
Conditions: embryonic day 15 rat VM cell culture, NMDA (100-400 μM) for 20 hours
Description: The neuroprotective activity of the compounds of this invention may be assayed using rat embryo ventral mesencephalic cells in culture which are subsequently exposed to the glutamate receptor agonist NMDA. This assay is described in detail in the example section.
The ventral mesencephalic region was dissected out of embryonic day 15 Sprague-Dawley rat embryos (Harlan), dissociated into single cell suspension by a combination of trypsinization and trituration (Costantini et al., Neurobiol Dis., pp. 97-106 (1998). Dissociated VM cells were plated into poly-L-ornithine-coated 96-well plates at a density of 85,000 cells/well in 100 uL of DMEM supplemented with 18% heat-inactivated horse serum, 0.24% glucose, 2 mM glutamine and 50 u/ml penicillin/streptomycin and incubated in a 5% CO2 incubator. After one day in culture (DIV1), the medium was replaced with 100 μL of a defined medium (DMEM supplemented with 1× N2 cocktail (Gibco-BRL), 0.12% glucose, 2 mM glutamine, and 50 units/ml penicillin/streptomycin) containing DMSO or various concentrations of the compounds of this invention. On DIV5, neuroexcitotoxic injury was induced by the addition of various concentrations of the glutamate receptor agonist NMDA (100-400 μM). Cultures were incubated with the neurotoxin for 20 hours and the effects of neurophilin compounds were assessed using high affinity ^3H-dopamine uptake according to a procedure published by Park and Mytilineou [Brain Res., 599, pp. 83-97 (1992)].

| Compound | EC50 [nM] |
| --- | --- |
| CCN1CC(c2ccccc2)C[C@H]1C(=O)N1CCC(Cc2ccccc2)CC1 (stereo partly drawn) [Compound 250] | > 500 |
| CN1[C@@H](C(=O)N2CCN(C(c3ccc(F)cc3)c3ccc(F)cc3)CC2)CC[C@H]1c1ccccc1 [Compound 222] | > 500 |
| CCN1CC[C@H]1C(=O)N1CCN(C(c2ccc(F)cc2)c2ccc(F)cc2)CC1 [Compound 254] | 100 to 500 |
| O=C([C@@H]1C=CCN1Cc1ccccc1)N1CCC(Cc2ccccc2)CC1 [Compound 219] | 100 to 500 |
| CCN1[C@@H](c2ccccc2)CC[C@H]1C(=O)N1CCN(C(c2ccc(F)cc2)c2ccc(F)cc2)CC1 [Compound 225] | < 100 |
| CCN1CC=C[C@H]1C(=O)N1CCC(Cc2ccccc2)CC1 [Compound 234] | > 500 |
| O=C([C@@H]1CCCN1CCc1ccccc1)N1CCC(Cc2ccc(F)cc2)CC1 [Compound 273] | < 100 |
| CN1CSC(C)(C)[C@@H]1C(=O)N1CCC(Cc2ccccc2)CC1 [Compound 228] | > 500 |
| CCN1CSC[C@H]1C(=O)N1CCN(C(c2ccc(F)cc2)c2ccc(F)cc2)CC1 [Compound 211] | > 500 |
| CN1CSC(C)(C)[C@H]1C(=O)N1CCC(Cc2ccccc2)CC1 [Compound 200] | 100 to 500 |
| CN1CSC(C)(C)[C@H]1C(=O)N1CCN(C(c2ccc(F)cc2)c2ccc(F)cc2)CC1 [Compound 216] | > 500 |
| O=C(C1[C@H]2C[C@@H]2CN1Cc1ccccc1)N1CCC(Cc2ccccc2)CC1 (stereo partly drawn) [Compound 221] | < 100 |
| CON=C1C[C@@H](C(=O)N2CCC(Cc3ccccc3)CC2)N(Cc2ccccc2)C1 [Compound 31, (2S)-1-Benzyl-5-(4-benzylpiperidine-1-carbonyl)-pyrrolidin-3-one O-methyl-oxime] | 100 to 500 |
| CCN1CC[C@H](C)[C@H]1C(=O)N1CCC(Cc2ccccc2)CC1 [Compound 238] | < 100 |
| O=C([C@@H]1CC[C@H](c2ccccc2)N1Cc1ccccc1)N1CCC(Cc2ccccc2)CC1 [Compound 233] | 100 to 500 |
